In US20240239861A1, “GLUCAGON-RECEPTOR SELECTIVE POLYPEPTIDES AND METHODS OF USE THEREOF” (i2O Therapeutics, Inc., priority 2016, published 2024) one finds EC50 data, which are given here for eight compounds.

pEC50: −log10 of the molar value. Where a SMILES comes first, the peptide text is derived from it. [ ]: non-standard residue; d: D form. Aib = CC(C)(N)C(=O)O

In this assay the target is human GLP-1R (Homo sapiens, UniProt P43220). The assay can be described thus: Peptide-receptor mediated cAMP accumulation (LANCE Ultra cAMP) in CHO-K1 cells transfected with human GLP-1R. Type of assay: cell-based. The conditions noted are these: hGLP1 pEC50 (cAMP mean (n = 3): 11 point curve starting at 1 nM, Table 3). For orientation: cAMP levels reflect the balance of adenylyl cyclase and phosphodiesterase activity.
human GLP-1R, sequence (P43220 24-463): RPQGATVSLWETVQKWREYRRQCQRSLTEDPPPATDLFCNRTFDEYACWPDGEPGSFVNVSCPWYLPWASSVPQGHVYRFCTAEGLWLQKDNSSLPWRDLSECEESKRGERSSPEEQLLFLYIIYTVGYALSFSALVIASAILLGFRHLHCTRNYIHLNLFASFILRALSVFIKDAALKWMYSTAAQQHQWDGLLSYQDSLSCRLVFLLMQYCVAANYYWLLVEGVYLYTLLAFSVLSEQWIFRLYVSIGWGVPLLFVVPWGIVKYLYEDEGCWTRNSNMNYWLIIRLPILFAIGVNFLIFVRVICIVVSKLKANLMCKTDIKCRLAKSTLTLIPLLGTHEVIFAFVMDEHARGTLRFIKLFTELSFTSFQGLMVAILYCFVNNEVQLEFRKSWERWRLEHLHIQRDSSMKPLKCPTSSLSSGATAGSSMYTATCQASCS
One may read the pEC50 as the negative decadic logarithm of the EC50, by convention in mol/L. Low values mean a large EC50, high ones a small EC50. With `CC(C)C[C@H](NC(=O)[C@H](Cc1c[nH]c2ccccc12)NC(=O)[C@H](CCCCN)NC(=O)[C@H](CO)NC(=O)[C@H](Cc1ccc(O)cc1)NC(=O)[C@H](CC(=O)O)NC(=O)[C@H](CO)NC(=O)[C@@H](NC(=O)[C@H](Cc1ccccc1)NC(=O)[C@@H](NC(=O)CNC(=O)[C@H](Cc1c[nH]cn1)NC(=O)[C@H](CO)NC(=O)[C@@H](N)Cc1ccc(O)cc1)[C@@H](C)O)[C@@H](C)O)C(=O)N[C@@H](CC(=O)O)C(=O)N[C@@H](CO)C(=O)N[C@@H](C)C(=O)N[C@@H](CCCNC(=N)N)C(=O)N[C@@H](C)C(=O)N[C@@H](CCC(N)=O)C(=O)N[C@@H](CCC(=O)O)C(=O)N[C@@H](Cc1ccccc1)C(=O)N[C@H](C(=O)N[C@@H](CCCCN)C(=O)N[C@@H](Cc1c[nH]c2ccccc12)C(=O)N[C@@H](CC(C)C)C(=O)N[C@@H](CCC(=O)O)C(=O)N[C@@H](CC(=O)O)C(=O)N[C@@H](CCC(=O)O)C(=O)N1CCC[C@H]1C(=O)N[C@@H](CO)C(=O)N[C@@H](CO)C(=O)NCC(=O)N[C@@H](C)C(=O)N1CCC[C@H]1C(=O)N1CCC[C@H]1C(=O)N1CCC[C@H]1C(=O)N[C@@H](CO)C(=O)O)C(C)C` [Compound A38] (H-YSHGTFTSDYSKWLDSARAQEFVKWLEDEPSSGAPPPS-OH; N-terminus assumed), the pEC50 was less than 9.00.

`CC[C@H](C)[C@H](NC(=O)[C@@H]1CCCN1C(=O)[C@@H]1CCCN1C(=O)[C@H](CCCCN)NC(=O)[C@H](CC(N)=O)NC(=O)[C@H](CCCNC(=N)N)NC(=O)[C@H](CCCCN)NC(=O)[C@H](CCC(=O)O)NC(=O)[C@H](CC(=O)O)NC(=O)[C@H](CCC(=O)O)NC(=O)[C@H](CC(C)C)NC(=O)[C@H](Cc1c[nH]c2ccccc12)NC(=O)C(C)(C)NC(=O)[C@@H](NC(=O)[C@H](Cc1ccccc1)NC(=O)[C@H](CCC(=O)O)NC(=O)[C@H](CCC(N)=O)NC(=O)[C@H](C)NC(=O)[C@H](CCCNC(=N)N)NC(=O)[C@H](CCCCN)NC(=O)C(C)(C)NC(=O)[C@H](CC(=O)O)NC(=O)[C@H](CC(C)C)NC(=O)[C@H](Cc1ccc(O)cc1)NC(=O)[C@H](CCCCN)NC(=O)[C@H](CO)NC(=O)[C@H](Cc1ccc(O)cc1)NC(=O)[C@H](CC(=O)O)NC(=O)[C@H](CO)NC(=O)[C@@H](NC(=O)[C@H](Cc1ccccc1)NC(=O)[C@@H](NC(=O)CNC(=O)[C@H](Cc1c[nH]cn1)NC(=O)[C@H](CO)NC(=O)[C@@H](N)Cc1ccc(O)cc1)[C@@H](C)O)[C@@H](C)O)C(C)C)C(=O)N[C@@H](C)C(=O)O` [Compound A46] (H-YSHGTFTSDYSKYLD[Aib]KRAQEFV[Aib]WLEDEKRNKPPIA-OH; N-terminus assumed) had a pEC50 of less than 9.00.

`CC(C)C[C@H](NC(=O)[C@H](Cc1ccc(O)cc1)NC(=O)[C@H](CCCCN)NC(=O)[C@H](CO)NC(=O)[C@H](Cc1ccc(O)cc1)NC(=O)[C@H](CC(=O)O)NC(=O)[C@H](CO)NC(=O)[C@@H](NC(=O)[C@H](Cc1ccccc1)NC(=O)[C@@H](NC(=O)CNC(=O)[C@H](Cc1c[nH]cn1)NC(=O)[C@H](CO)NC(=O)[C@@H](N)Cc1ccc(O)cc1)[C@@H](C)O)[C@@H](C)O)C(=O)N[C@@H](CC(=O)O)C(=O)NC(C)(C)C(=O)N[C@@H](CCCCN)C(=O)N[C@@H](CCCNC(=N)N)C(=O)N[C@@H](C)C(=O)N[C@@H](CCC(N)=O)C(=O)N[C@@H](CCC(=O)O)C(=O)N[C@@H](Cc1ccccc1)C(=O)N[C@H](C(=O)NC(C)(C)C(=O)N[C@@H](Cc1c[nH]c2ccccc12)C(=O)N[C@@H](CC(C)C)C(=O)N[C@@H](CCC(=O)O)C(=O)N[C@@H](CC(=O)O)C(=O)N[C@@H](CCC(=O)O)C(=O)N1CCC[C@H]1C(=O)N[C@@H](CCCNC(=N)N)C(=O)N[C@@H](CC(N)=O)C(=O)N[C@@H](CCCCN)C(=O)N[C@@H](CC(N)=O)C(=O)N[C@@H](CC(N)=O)C(=O)N1CCC[C@H]1C(=O)N1CCC[C@H]1C(=O)N[C@@H](CO)C(=O)O)C(C)C` [Compound A49] (H-YSHGTFTSDYSKYLD[Aib]KRAQEFV[Aib]WLEDEPRNKNNPPS-OH; N-terminus assumed): the pEC50 is less than 9.00.

With `CC(C)C[C@H](NC(=O)[C@H](CC(=O)O)NC(=O)[C@H](CC(C)C)NC(=O)[C@H](Cc1ccc(O)cc1)NC(=O)[C@H](CCCCN)NC(=O)[C@H](CO)NC(=O)[C@H](Cc1ccc(O)cc1)NC(=O)[C@H](CC(=O)O)NC(=O)[C@H](CO)NC(=O)[C@@H](NC(=O)[C@H](Cc1ccccc1)NC(=O)[C@@H](NC(=O)CNC(=O)[C@H](Cc1c[nH]cn1)NC(=O)[C@H](CO)NC(=O)[C@@H](N)Cc1ccc(O)cc1)[C@@H](C)O)[C@@H](C)O)C(=O)N[C@@H](CCCCN)C(=O)N[C@@H](CCCNC(=N)N)C(=O)N[C@@H](C)C(=O)N[C@@H](CCC(N)=O)C(=O)N[C@@H](CCC(=O)O)C(=O)N[C@@H](Cc1ccccc1)C(=O)N[C@H](C(=O)NC(C)(C)C(=O)N[C@@H](Cc1c[nH]c2ccccc12)C(=O)N[C@@H](CC(C)C)C(=O)N[C@@H](CCC(=O)O)C(=O)N[C@@H](CC(=O)O)C(=O)N[C@@H](CCC(=O)O)C(=O)N1CCC[C@H]1C(=O)N[C@@H](CO)C(=O)N[C@@H](CO)C(=O)NCC(=O)N[C@@H](C)C(=O)N1CCC[C@H]1C(=O)N1CCC[C@H]1C(=O)N1CCC[C@H]1C(=O)N[C@@H](CO)C(=O)O)C(C)C` [Compound A51] (H-YSHGTFTSDYSKYLDLKRAQEFV[Aib]WLEDEPSSGAPPPS-OH; N-terminus assumed), the pEC50 is less than 9.00.

`CC(C)C[C@H](NC(=O)[C@H](Cc1ccc(O)cc1)NC(=O)[C@H](CCCCN)NC(=O)[C@H](CO)NC(=O)[C@H](Cc1ccc(O)cc1)NC(=O)[C@H](CC(=O)O)NC(=O)[C@H](CO)NC(=O)[C@@H](NC(=O)[C@H](Cc1ccccc1)NC(=O)[C@@H](NC(=O)CNC(=O)[C@H](Cc1c[nH]cn1)NC(=O)[C@H](CO)NC(=O)[C@@H](N)Cc1ccc(O)cc1)[C@@H](C)O)[C@@H](C)O)C(=O)N[C@@H](CC(=O)O)C(=O)NC(C)(C)C(=O)N[C@@H](CCCCN)C(=O)N[C@@H](CCCNC(=N)N)C(=O)N[C@@H](C)C(=O)N[C@@H](CCC(N)=O)C(=O)N[C@@H](CCC(=O)O)C(=O)N[C@@H](Cc1ccccc1)C(=O)N[C@H](C(=O)NC(C)(C)C(=O)N[C@@H](Cc1c[nH]c2ccccc12)C(=O)N[C@@H](CC(C)C)C(=O)N[C@@H](CCC(=O)O)C(=O)N[C@@H](CC(=O)O)C(=O)N[C@@H](CCC(=O)O)C(=O)N1CCC[C@H]1C(=O)N[C@@H](CO)C(=O)N[C@@H](CO)C(=O)N[C@@H](CCCCN)C(=O)N[C@@H](CO)C(=O)N1CCC[C@H]1C(=O)N1CCC[C@H]1C(=O)N1CCC[C@H]1C(=O)N[C@@H](CO)C(=O)O)C(C)C` [Compound A55] (H-YSHGTFTSDYSKYLD[Aib]KRAQEFV[Aib]WLEDEPSSKSPPPS-OH; N-terminus assumed) gave a pEC50 of less than 9.00.

As to `CC(C)C[C@H](NC(=O)[C@H](Cc1ccc(O)cc1)NC(=O)[C@H](CCCCN)NC(=O)[C@H](CO)NC(=O)[C@H](Cc1ccc(O)cc1)NC(=O)[C@H](CC(=O)O)NC(=O)[C@H](CO)NC(=O)[C@@H](NC(=O)[C@H](Cc1ccccc1)NC(=O)[C@@H](NC(=O)CNC(=O)[C@H](Cc1c[nH]cn1)NC(=O)[C@H](CO)NC(=O)[C@@H](N)Cc1ccc(O)cc1)[C@@H](C)O)[C@@H](C)O)C(=O)N[C@@H](CC(=O)O)C(=O)NC(C)(C)C(=O)N[C@@H](CCCCN)C(=O)N[C@@H](CCCNC(=N)N)C(=O)N[C@@H](C)C(=O)N[C@@H](CCC(N)=O)C(=O)N[C@@H](CCC(=O)O)C(=O)N[C@@H](Cc1ccccc1)C(=O)N[C@H](C(=O)NC(C)(C)C(=O)N[C@@H](Cc1c[nH]c2ccccc12)C(=O)N[C@@H](CC(C)C)C(=O)N[C@@H](CCC(=O)O)C(=O)N[C@@H](CC(=O)O)C(=O)N[C@@H](CCC(=O)O)C(=O)N1CCC[C@H]1C(=O)N[C@@H](CO)C(=O)N[C@@H](CO)C(=O)N[C@@H](CCCCN)C(=O)N[C@@H](CCC(N)=O)C(=O)N1CCC[C@H]1C(=O)N1CCC[C@H]1C(=O)N1CCC[C@H]1C(=O)N[C@@H](CO)C(=O)O)C(C)C` [Compound A59] (H-YSHGTFTSDYSKYLD[Aib]KRAQEFV[Aib]WLEDEPSSKQPPPS-OH; N-terminus assumed), the pEC50 is less than 9.00.

As to `CC(C)C[C@H](NC(=O)[C@H](Cc1ccc(O)cc1)NC(=O)[C@H](CCCCN)NC(=O)[C@H](CO)NC(=O)[C@H](Cc1ccc(O)cc1)NC(=O)[C@H](CC(=O)O)NC(=O)[C@H](CO)NC(=O)[C@@H](NC(=O)[C@H](Cc1ccccc1)NC(=O)[C@@H](NC(=O)CNC(=O)[C@H](Cc1c[nH]cn1)NC(=O)[C@H](CO)NC(=O)[C@@H](N)Cc1ccc(O)cc1)[C@@H](C)O)[C@@H](C)O)C(=O)N[C@@H](CC(=O)O)C(=O)NC(C)(C)C(=O)N[C@@H](CCCCN)C(=O)N[C@@H](CCCNC(=N)N)C(=O)N[C@@H](C)C(=O)N[C@@H](CCC(N)=O)C(=O)N[C@@H](CCC(=O)O)C(=O)N[C@@H](Cc1ccccc1)C(=O)N[C@H](C(=O)NC(C)(C)C(=O)N[C@@H](Cc1c[nH]c2ccccc12)C(=O)N[C@@H](CC(C)C)C(=O)N[C@@H](CCC(=O)O)C(=O)N[C@@H](CC(=O)O)C(=O)N[C@@H](CCC(=O)O)C(=O)N1CCC[C@H]1C(=O)N[C@@H](CCCCN)C(=O)N[C@@H](CO)C(=O)N[C@@H](CCCCN)C(=O)N[C@@H](CCC(=O)O)C(=O)N1CCC[C@H]1C(=O)N1CCC[C@H]1C(=O)N1CCC[C@H]1C(=O)N[C@@H](CO)C(N)=O)C(C)C` [Compound A65] (H-YSHGTFTSDYSKYLD[Aib]KRAQEFV[Aib]WLEDEPKSKEPPPS-NH2; N-terminus assumed), the pEC50 was less than 9.00.

Consider `CC(C)C[C@H](NC(=O)[C@H](Cc1ccc(O)cc1)NC(=O)[C@H](CCCCN)NC(=O)[C@H](CO)NC(=O)[C@H](Cc1ccc(O)cc1)NC(=O)[C@H](CC(=O)O)NC(=O)[C@H](CO)NC(=O)[C@@H](NC(=O)[C@H](Cc1ccccc1)NC(=O)[C@@H](NC(=O)CNC(=O)[C@H](Cc1c[nH]cn1)NC(=O)[C@H](CO)NC(=O)[C@@H](N)Cc1ccc(O)cc1)[C@@H](C)O)[C@@H](C)O)C(=O)N[C@@H](CC(=O)O)C(=O)NC(C)(C)C(=O)N[C@@H](CCCCN)C(=O)N[C@@H](CCCNC(=N)N)C(=O)N[C@@H](C)C(=O)N[C@@H](CCC(N)=O)C(=O)N[C@@H](CCC(=O)O)C(=O)N[C@@H](Cc1ccccc1)C(=O)N[C@H](C(=O)NC(C)(C)C(=O)N[C@@H](Cc1c[nH]c2ccccc12)C(=O)N[C@@H](CC(C)C)C(=O)N[C@@H](CCC(=O)O)C(=O)N[C@@H](CC(=O)O)C(=O)N[C@@H](CCC(=O)O)C(=O)N1CCC[C@H]1C(=O)N[C@@H](CCCCN)C(=O)N[C@@H](CO)C(=O)N[C@@H](CCCCN)C(=O)N[C@@H](CO)C(=O)N1CCC[C@H]1C(=O)N1CCC[C@H]1C(=O)N1CCC[C@H]1C(=O)N[C@@H](CO)C(N)=O)C(C)C` [Compound A66] (H-YSHGTFTSDYSKYLD[Aib]KRAQEFV[Aib]WLEDEPKSKSPPPS-NH2; N-terminus assumed), for which the pEC50 was less than 9.00.
